From ChEMBL document CHEMBL1154065, “Discovery of novel P3 sulfonamide-capped inhibitors of HCV NS3 protease. Inhibitors with improved cellular potencies” (Bioorg Med Chem, 2009)

How the values were obtained:
Hepatitis C virus [1] = experiment: Antiviral activity against Hepatitis C virus infected in human hepatoma cell by replicon assay; assay type: functional, Hepacivirus hominis
[2] = Inhibition of HCV NS3 protease by continuous spectrophotometric assay; set-up: species or system Hepacivirus hominis
Rattus norvegicus = experiment: AUC (0 to 6 hrs) in po dosed rat; assay type: ADME, organism-based, Plasma; set-up: time < 6 hr, route oral; settings: in vivo
[3] = AUC (0 to 6 hrs) in monkey at 3 mg/kg, po; assay type: ADME, organism-based, Macaca mulatta; set-up: time < 6 hr, dose 3 mg/kg, route oral; settings: rhesus monkey, plasma
Hepatitis C virus [4] = experiment: Ratio of boceprevir EC90 to compound EC90 for Hepatitis C virus infected in human hepatoma cell; assay type: functional, Hepacivirus hominis
[5] = AUC (0 to 6 hrs) in rat at 10 mg/kg, po; assay type: ADME, organism-based; set-up: time < 6 hr, dose 10 mg/kg, route oral; settings: plasma
[6] = Selectivity for HCV NS3 protease over human neutrophil elastase

Structure (SMILES)	EC90 (Hepatitis C virus [1]) [nM]	Ki [2] [nM]	AUC (Rattus norvegicus) [µM·h]	AUC(0-t) at 6 h [3] [µM·h]	AUC(0-t) at 6 h [5] [µM·h]	Selectivity ratio [6]	Ratio (Hepatitis C virus [4])
CC(C)[C@@H](CNS(C)(=O)=O)NC(=O)N[C@H](C(=O)N1C[C@H]2[C@@H]([C@H]1C(=O)NC(CC1CCC1)C(=O)C(N)=O)C2(C)C)C(C)(C)C (some centres undefined)	2000	31					
CC(C)[C@@H](CNS(=O)(=O)c1cccs1)NC(=O)N[C@H](C(=O)N1C[C@H]2[C@@H]([C@H]1C(=O)NC(CC1CCC1)C(=O)C(N)=O)C2(C)C)C(C)(C)C (some centres undefined)	600	23					
C=CCNC(=O)C(=O)C(CCC)NC(=O)[C@@H]1[C@@H]2[C@H](CN1C(=O)[C@@H](NC(=O)N[C@H](CN(C)S(=O)(=O)N(C)C)C(C)(C)C)C1Cc3ccccc3C1)C2(C)C (some centres undefined)	100	11					
C=CCNC(=O)C(=O)C(CCC)NC(=O)[C@@H]1[C@@H]2[C@H](CN1C(=O)[C@@H](NC(=O)N[C@H](CN(C)S(=O)(=O)c1ccccn1)C(C)(C)C)C(C)(C)C)C2(C)C (some centres undefined)	180	14	1.02				
CC[C@H](C)[C@@H](CN(C)S(=O)(=O)c1ccccc1)NC(=O)N[C@H](C(=O)N1C[C@H]2[C@@H]([C@H]1C(=O)NC(CC1CCC1)C(=O)C(N)=O)C2(C)C)C(C)(C)C (some centres undefined)	250	13					
CC(C)C[C@@](C)(CN(C)S(=O)(=O)c1ccccc1)NC(=O)N[C@H](C(=O)N1C[C@H]2[C@@H]([C@H]1C(=O)NC(CC1CCC1)C(=O)C(N)=O)C2(C)C)C(C)(C)C (some centres undefined)		80					
CC(C)(C)[C@H](NC(=O)N[C@H](CNS(=O)(=O)c1ccccc1)C(C)(C)C)C(=O)N1C[C@H]2[C@@H]([C@H]1C(=O)NC(CC1CCC1)C(=O)C(N)=O)C2(C)C (some centres undefined)		13					
C=CCNC(=O)C(=O)C(CCCC)NC(=O)[C@@H]1[C@@H]2[C@H](CN1C(=O)[C@@H](NC(=O)N[C@H](CN(C)S(=O)(=O)N(C)C)C(C)(C)C)C1CCCCC1)C2(C)C (some centres undefined)	80	6			1.74		
CC(C)(C)NC(=O)N[C@H](C(=O)N1C[C@H]2[C@@H]([C@H]1C(=O)NC(CC1CCC1)C(=O)C(N)=O)C2(C)C)C(C)(C)C (some centres undefined) [BOCEPREVIR]	350	14				2200	
C=CCNC(=O)C(=O)C(CCC)NC(=O)[C@@H]1[C@@H]2[C@H](CN1C(=O)[C@@H](NC(=O)N[C@H](CN(C)S(=O)(=O)CC)C(C)(C)C)C(C)(C)C)C2(C)C (some centres undefined)	150	10	0.34				
CC(C)[C@H](CN(C)S(=O)(=O)c1ccccc1)NC(=O)N[C@H](C(=O)N1C[C@H]2[C@@H]([C@H]1C(=O)NC(CC1CC1)C(=O)C(N)=O)C2(C)C)C(C)(C)C (some centres undefined)	130	6				680	
CC(C)[C@@H](CNS(=O)(=O)c1ccccc1)NC(=O)N[C@H](C(=O)N1C[C@H]2[C@@H]([C@H]1C(=O)NC(CC1CC1)C(=O)C(N)=O)C2(C)C)C(C)(C)C (some centres undefined)	550	10					
CC(C)[C@@H](CN(C)S(=O)(=O)c1cccs1)NC(=O)N[C@H](C(=O)N1C[C@H]2[C@@H]([C@H]1C(=O)NC(CC1CCC1)C(=O)C(N)=O)C2(C)C)C(C)(C)C (some centres undefined)	100	12					
CC(C)C(CN(C)S(=O)(=O)c1ccccc1)NC(=O)N[C@H](C(=O)N1C[C@H]2[C@@H]([C@H]1C(=O)NC(CC1CCC1)C(=O)C(N)=O)C2(C)C)C(C)(C)C (single isomer, unassigned)	140	8				3100	
CN(CC1(NC(=O)N[C@H](C(=O)N2C[C@H]3[C@@H]([C@H]2C(=O)NC(CC2CCC2)C(=O)C(N)=O)C3(C)C)C(C)(C)C)CCCCC1)S(=O)(=O)c1ccccc1 (some centres undefined)	400	12					
CC(C)[C@@H](CN(C)S(=O)(=O)c1ccccc1)NC(=O)N[C@H](C(=O)N1C[C@H]2[C@@H]([C@H]1C(=O)NC(CC1CC1)C(=O)C(N)=O)C2(C)C)C(C)(C)C (some centres undefined)	130	8					
C=CCNC(=O)C(=O)C(CCC)NC(=O)[C@@H]1[C@@H]2[C@H](CN1C(=O)[C@@H](NC(=O)N[C@H](CN(C)S(=O)(=O)c1cccs1)C(C)(C)C)C(C)(C)C)C2(C)C (some centres undefined)	260	10	1.38				

Further compounds by falling Ki [2], results first:

EC90 (Hepatitis C virus [1]) [nM]	Ki [2] [nM]	AUC (Rattus norvegicus) [µM·h]	AUC(0-t) at 6 h [3] [µM·h]	AUC(0-t) at 6 h [5] [µM·h]	Selectivity ratio [6]	Structure (SMILES)	Ratio (Hepatitis C virus [4])
100	6					C=CCNC(=O)C(=O)C(CCC)NC(=O)[C@@H]1[C@@H]2[C@H](CN1C(=O)[C@@H](NC(=O)N[C@H](CN(C)S(=O)(=O)CC)C(C)(C)C)C1Cc3ccccc3C1)C2(C)C (some centres undefined)	
200	6					CC(C)[C@H](NC(=O)N[C@H](C(=O)N1C[C@H]2[C@@H]([C@H]1C(=O)NC(CC1CC1)C(=O)C(N)=O)C2(C)C)C(C)(C)C)C(=O)OC(C)(C)C (some centres undefined)	
60	6		0.69	1.2		C=CCNC(=O)C(=O)C(CCCC)NC(=O)[C@@H]1[C@@H]2[C@H](CN1C(=O)[C@@H](NC(=O)N[C@H](CN(C)S(=O)(=O)CC)C(C)(C)C)C1Cc3ccccc3C1)C2(C)C (some centres undefined)	5
90	5	0.09				CN(C[C@@H](NC(=O)N[C@H](C(=O)N1C[C@H]2[C@@H]([C@H]1C(=O)NC(CC1CCC1)C(=O)C(N)=O)C2(C)C)C(C)(C)C)C(C)(C)C)S(=O)(=O)C1CC1 (some centres undefined)	
75	5					CN(C[C@@H](NC(=O)N[C@H](C(=O)N1C[C@H]2[C@@H]([C@H]1C(=O)NC(CC1CCC1)C(=O)C(N)=O)C2(C)C)C(C)(C)C)C(C)(C)C)S(=O)(=O)c1ccccc1 (some centres undefined)	
150	5	0.06				CN(C[C@@H](NC(=O)N[C@H](C(=O)N1C[C@H]2[C@@H]([C@H]1C(=O)NC(CC1CCC1)C(=O)C(N)=O)C2(C)C)C(C)(C)C)C(C)(C)C)S(C)(=O)=O (some centres undefined)	2
350	4					CC(C)[C@@H](CN(C)S(C)(=O)=O)NC(=O)N[C@H](C(=O)N1C[C@H]2[C@@H]([C@H]1C(=O)NC(CC1CCC1)C(=O)C(N)=O)C2(C)C)C(C)(C)C (some centres undefined)	
60	4	0.11				CN(C[C@@H](NC(=O)N[C@H](C(=O)N1C[C@H]2[C@@H]([C@H]1C(=O)NC(CC1CCC1)C(=O)C(N)=O)C2(C)C)C(C)(C)C)C(C)(C)C)S(=O)(=O)c1cccs1 (some centres undefined)	
150	4					CCS(=O)(=O)N(C)C[C@@H](NC(=O)N[C@H](C(=O)N1C[C@H]2[C@@H]([C@H]1C(=O)NC(CC1CCC1)C(=O)C(N)=O)C2(C)C)C(C)(C)C)C(C)(C)C (some centres undefined)	
